Measured values as given in patent publication US20080113003A1, “Sinapic Acid Supplementation” (UNIVERSITY OF SASKATCHEWAN, priority 2004, published 2008).
Marks after values point to notes of the source that are not given here.

Key:
[1] = Example 3: feed consumption, weight gain and diet AME; format: in vivo, broiler chickens; conditions: sinapic acid 0.025% in diet
Method: Broiler chickens were fed a corn-soybean meal based diet either unsupplemented or supplemented with sinapic acid at a level of 0.025%, 0.05% or 0.1%. After the supplementation period, microbial analysis was conducted. This Example was designed to confirm the results of Example 2, to assess effects on microbial community, and to repeat the VFA measurement by increasing the chick numbers within the replication.
Ninety-six ([…]) male broiler chicks (Peterson X Hubbard) were randomly assigned to four treatments, with six birds in each replication and four replications for each treatment. A corn-soybean based diet served as a control, while another three diets were supplemented with graded levels of sinapic acid (0.025, 0.05 and 0.10%). Bird management was as previously described in Example 1. Volatile fatty acid measurement was conducted as described in Example 2, except that digesta was pooled from six birds per replication.

[2] = Example 1: performance of broiler chickens on dietary sinapic acid (gain, feed intake, gain/feed); format: in vivo; conditions: 0-18 d of age
Text: Bird management. Broilers were housed in battery brooders.

[3] = Example 1: apparent sinapic acid digestibility (HPLC of feed, excreta, digesta); format: in vivo, broiler chickens; conditions: dietary sinapic acid 0.025-0.10%
Method: (§1) Sample Analyses. Acid insoluble ash (AIA, Celite) was used as an indigestible marker for the determination of the apparent digestibility of metabolizable energy, protein (ileal and fecal) and SA. AIA was determined by using the procedure of Vogtmann et al, 1975 Br. Poult. Sci. 67:641-646. The gross energy was measured by a traditional bomb calorimeter, and crude protein was analyzed by a Leco FP-528™ protein analyzer (Model No. 601-500-100, Serial#3211, LECO Corporation, 3000 Lakeview Avenue, St. Joseph Mich. 49085-2396 USA). Based on the assay of nutrient and AIA in feed, excreta, and ileal content, the nutrient digestibility was determined.
The analysis of sinapic acid in feed, excreta and digesta samples was conducted by HPLC using a reversed-phase column under the fluorescence detection method. The mobile phase was isocratic, based on 6% MeOH solution with 20 mmol K2HPO4 as basic buffer. For feed and excreta samples, the analysis was conducted at pH 9.5, however, for ileal and cecal samples, the pH was changed to 9 to obtain better background separation and chromatograms.

[4] = Example 1: apparent nutrient digestibility (AME, ileal and fecal protein); format: in vivo, broiler chickens; conditions: for AME (apparent metabolizable energy): excreta 16-18 d
Method: as §1

[5] = test system: cecal microbial community; experiment: Example 3: microbial community assay, % G+C profile of cecal digesta; format: in vivo, broiler chickens; conditions: dose dependent, sinapic acid 0.025-0.10% in diet
[6] = test system: bacterial populations in the ileum and ceca; experiment: Example 2: volatile fatty acid content of ileal and cecal digesta (0.05-0.20% sinapic acid); format: in vivo, broiler chickens; conditions: sinapic acid 0.05-0.20% in diet
Method: Bird management and diet composition were as described in Example 1. Volatile Fatty Acid (VFA) Measurement. The status of bacterial populations in the ileum and ceca of experimental birds was assessed by examining VFA production. The birds were killed by lethal injection with T-61TM(Euthanasia solution) and the ileal and cecal digesta of three birds within each replication were collected in a well-sealed plastic centrifuge tube and then frozen at -20° C. Ileal digesta were collected from the terminal ileum (distal half excluding the last 2 cm anterior from the ceca). Samples within a replication were pooled and mixed well prior to VFA measurement. Analyses of VFA (acetic, propionic, isobutyric, butyric, isovaleric, and valeric acid) were conducted by Gas Chromatography (GC) (Varian Star 3400) using a StabilwaxTM-DA column (0.25 mm ID, 0.25 μm […] Corporation, 110 Benner Circle, Bellefonte Pa., 16823-8812 USA) and based on the procedure of Choct et al. (Br. Poult. […] A concentration of 2 mmol/L is acceptable for the internal standard in intestinal content samples. One ml of standard solution was added to 0.2 (cecal) or 0.5 (ileal) g of sample and vortexed until well-mixed. The mixture was then centrifuged at 28,000 g for 10 minutes and the supernatant pipetted into GC vials for analysis. Statistical Analyses. […]

COc1cc(C=CC(=O)O)cc(OC)c1O [Sinapic Acid, 4-hydroxy-3,5dimethyoxy-cinnamic acid]
feed consumption [1]: increased
increase in diet AME [1]: 2%
increase in weight gain [1]: 6%
Feed intake/bird ([2]; sinapic acid 0.025% in diet): 781^a g
Gain ([2]; sinapic acid 0.025% in diet): 561 g
Gain/feed ([2]; sinapic acid 0.025% in diet): 0.72
Feed intake/bird ([2]; sinapic acid 0.05% in diet): 738^ab g
Gain ([2]; sinapic acid 0.05% in diet): 545 g
Gain/feed ([2]; sinapic acid 0.05% in diet): 0.74
Feed intake/bird ([2]; sinapic acid 0.10% in diet): 689^b g
Gain ([2]; sinapic acid 0.10% in diet): 491 g
Gain/feed ([2]; sinapic acid 0.10% in diet): 0.71
sinapic acid in the cecal digesta [3]: no sinapic acid found
Fecal protein digest. ([4]; sinapic acid 0.025% in diet): 68.5%
Ileal protein digest. ([4]; sinapic acid 0.025% in diet): 81.5%
AME (apparent metabolizable energy) ([4]; sinapic acid 0.025% in diet): 3412 kcal/kg
Fecal protein digest. ([4]; sinapic acid 0.05% in diet): 66.3%
Ileal protein digest. ([4]; sinapic acid 0.05% in diet): 78.8%
AME (apparent metabolizable energy) ([4]; sinapic acid 0.05% in diet): 3418 kcal/kg
Fecal protein digest. ([4]; sinapic acid 0.10% in diet): 66.5%
Ileal protein digest. ([4]; sinapic acid 0.10% in diet): 80%
AME (apparent metabolizable energy) ([4]; sinapic acid 0.10% in diet): 3442 kcal/kg
amounts of cecal microbes in the range % G+C 40-54 [5]: decreased
relative abundance of cecal bacteria in the range % G+C 20-30 [5]: increased
relative abundance of cecal bacteria in the range % G+C 55-69 [5]: increased
reduction of acetic acid level in cecal contents compared with control [6]: 15-20%
reduction of total VFA level in cecal contents compared with control [6]: 15-20%
